Measurements reported in the supplement of paper PMC10307832.

Legend:
Assay in all cases: relative viability (nuclei count vs DMSO), 5 days (fraction); higher = more cells survive
LXF-289 = system: LXF-289
How it was run: (§1)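 Five library-drug doses in √10 steps were combined with a fixed anchor-drug dose, or a single drug was given alone, by pin tool to lung cancer cell lines in 1536-well plates the day after seeding. Nuclei were stained and counted after 5 days. Relative viability is the nuclei count in treated wells over that in vehicle wells, taken as the median of duplicate plates.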

UMC-11 = system: UMC-11
How it was run: as §1

COR-L23 = system: COR-L23
How it was run: as §1

NCI-H358 = system: NCI-H358
How it was run: as §1

NCI-H1993 = system: NCI-H1993
How it was run: as §1

EKVX = system: EKVX
How it was run: as §1

NCI-H1734 = system: NCI-H1734
How it was run: as §1

LK-2 = system: LK-2
How it was run: as §1

PC-14 = system: PC-14
How it was run: as §1

NCI-H460 = system: NCI-H460
How it was run: as §1

NCI-H1651 = system: NCI-H1651
How it was run: as §1

NCI-H2087 = system: NCI-H2087
How it was run: as §1

NCI-H2405 = conditions: first compound 0.253 µM
How it was run: as §1

Which results are given for Nc1cccc2c1CN(C1CCC(=O)NC1=O)C2=O (centres undefined) [Lenalidomide] + COc1cccc2cc(-c3nc([C@H]4CC[C@H](C(=O)O)CC4)n4ncnc(N)c34)[nH]c12 [OSI-027] (partner 0.5 µM)?
relative viability (LXF-289; first compound 0.253 µM): 0.832; relative viability (LXF-289; first compound 0.8 µM): 0.823; relative viability (LXF-289; first compound 2.53 µM): 0.871; relative viability (LXF-289; first compound 8 µM): 0.772; relative viability (UMC-11; first compound 0.253 µM): 0.456; relative viability (UMC-11; first compound 0.8 µM): 0.576; relative viability (UMC-11; first compound 2.53 µM): 0.53; relative viability (UMC-11; first compound 8 µM): 0.464; relative viability (COR-L23; first compound 0.253 µM): 0.781; relative viability (COR-L23; first compound 0.8 µM): 0.776; relative viability (COR-L23; first compound 2.53 µM): 0.892; relative viability (COR-L23; first compound 8 µM): 0.787; relative viability (NCI-H358; first compound 0.253 µM): 0.717; relative viability (NCI-H358; first compound 0.8 µM): 0.815; relative viability (NCI-H358; first compound 2.53 µM): 0.925; relative viability (NCI-H358; first compound 8 µM): 0.855; relative viability (NCI-H1993; first compound 0.253 µM): 0.401; relative viability (NCI-H1993; first compound 0.8 µM): 0.572; relative viability (NCI-H1993; first compound 2.53 µM): 0.593; relative viability (NCI-H1993; first compound 8 µM): 0.607; relative viability (EKVX; first compound 0.253 µM): 0.724; relative viability (EKVX; first compound 0.8 µM): 0.734; relative viability (EKVX; first compound 2.53 µM): 0.696; relative viability (EKVX; first compound 8 µM): 0.702; relative viability (NCI-H1734; first compound 0.253 µM): 0.63; relative viability (NCI-H1734; first compound 0.8 µM): 0.712; relative viability (NCI-H1734; first compound 2.53 µM): 0.566; relative viability (NCI-H1734; first compound 8 µM): 0.608; relative viability (LK-2; first compound 0.253 µM): 0.215; relative viability (LK-2; first compound 0.8 µM): 0.19; relative viability (LK-2; first compound 2.53 µM): 0.191; relative viability (LK-2; first compound 8 µM): 0.182; relative viability (PC-14; first compound 0.253 µM): 0.791; relative viability (PC-14; first compound 0.8 µM): 0.853; relative viability (PC-14; first compound 2.53 µM): 1.2; relative viability (PC-14; first compound 8 µM): 1.02; relative viability (NCI-H460; first compound 0.253 µM): 0.643; relative viability (NCI-H460; first compound 0.8 µM): 0.679; relative viability (NCI-H460; first compound 2.53 µM): 1.01; relative viability (NCI-H460; first compound 8 µM): 0.709; relative viability (NCI-H1651; first compound 0.253 µM): 0.772; relative viability (NCI-H1651; first compound 0.8 µM): 0.728; relative viability (NCI-H1651; first compound 2.53 µM): 0.994; relative viability (NCI-H1651; first compound 8 µM): 0.919; relative viability (NCI-H2087; first compound 0.253 µM): 0.679; relative viability (NCI-H2087; first compound 0.8 µM): 0.501; relative viability (NCI-H2087; first compound 2.53 µM): 0.521; relative viability (NCI-H2087; first compound 8 µM): 0.712; relative viability (NCI-H2405): 0.586
